The source made the active and inactive calls.
Tests used:
Assay type in all cases: functional
[1] = target: Cyclin-dependent kinase 1 (Homo sapiens, UniProt P06493);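 note: Kinome-wide panel profiling, with the target listed as panel member CDC2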
[2] = target: T1, Tyrosine-protein kinase ITK/TSK (Homo sapiens, UniProt Q08881);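 note: affinity for ITK measured as one member of a broad kinase panel profiling binding across the kinome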
T1 sequence (Q08881 whole entry): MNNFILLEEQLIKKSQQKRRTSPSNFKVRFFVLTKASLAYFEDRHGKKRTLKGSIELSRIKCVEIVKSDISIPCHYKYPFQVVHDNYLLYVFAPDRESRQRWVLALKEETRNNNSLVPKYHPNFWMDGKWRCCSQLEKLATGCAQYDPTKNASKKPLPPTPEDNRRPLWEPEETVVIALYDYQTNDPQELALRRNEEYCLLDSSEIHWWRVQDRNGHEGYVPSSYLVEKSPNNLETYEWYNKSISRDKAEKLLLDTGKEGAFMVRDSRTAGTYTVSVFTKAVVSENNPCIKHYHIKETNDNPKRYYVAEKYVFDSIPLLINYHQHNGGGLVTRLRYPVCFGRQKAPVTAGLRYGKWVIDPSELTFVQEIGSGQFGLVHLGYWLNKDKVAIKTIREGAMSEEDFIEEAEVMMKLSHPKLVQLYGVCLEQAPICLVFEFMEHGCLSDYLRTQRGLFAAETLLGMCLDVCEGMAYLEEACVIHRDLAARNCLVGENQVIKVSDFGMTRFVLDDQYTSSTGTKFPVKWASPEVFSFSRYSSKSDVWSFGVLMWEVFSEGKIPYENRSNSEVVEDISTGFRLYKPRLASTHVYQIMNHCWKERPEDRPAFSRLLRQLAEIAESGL

[3] = target: Cyclin-dependent kinase 2 (Homo sapiens, UniProt P24941);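 note: CDK2 measured as one member of a broad kinome profiling panel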
[4] = target: Mast/stem cell growth factor receptor Kit (Homo sapiens, UniProt P10721);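 note: KIT entry within a kinase panel assay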
[5] = target: Mitogen-activated protein kinase 1 (Homo sapiens, UniProt P28482)
[6] = target: Serine/threonine-protein kinase pim-2 (Homo sapiens, UniProt Q9P1W9);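 note: value comes from a broad kinase panel profiling study in which PIM2 was one of the panel members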
[7] = target: Mitogen-activated protein kinase 9 (Homo sapiens, UniProt P45984);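 note: value from a kinome panel profiling assay, MAPK9 panel entry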
[8] = target: Receptor tyrosine-protein kinase erbB-2 (Homo sapiens, UniProt P04626); assay: Navigating the Kinome. Panel member name: ERBB2
[9] = target: Tyrosine-protein kinase ABL1 (Homo sapiens, UniProt P00519)
[10] = target: Mitogen-activated protein kinase 12 (Homo sapiens, UniProt P53778);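 note: measured as one member of a kinome-wide kinase profiling panel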
[11] = target: Mitogen-activated protein kinase 8 (Homo sapiens, UniProt P45983);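 note: value comes from one member of a kinome-wide kinase profiling panel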
[12] = target: Serine/threonine-protein kinase Chk2 (Homo sapiens, UniProt O96017);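 note: CHEK2 entry within a kinome-wide screening panel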
[13] = target: Death-associated protein kinase 3 (Homo sapiens, UniProt O43293);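 note: measured as one member of a kinome-wide profiling panel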
Chain of Death-associated protein kinase 3 (O43293 whole entry): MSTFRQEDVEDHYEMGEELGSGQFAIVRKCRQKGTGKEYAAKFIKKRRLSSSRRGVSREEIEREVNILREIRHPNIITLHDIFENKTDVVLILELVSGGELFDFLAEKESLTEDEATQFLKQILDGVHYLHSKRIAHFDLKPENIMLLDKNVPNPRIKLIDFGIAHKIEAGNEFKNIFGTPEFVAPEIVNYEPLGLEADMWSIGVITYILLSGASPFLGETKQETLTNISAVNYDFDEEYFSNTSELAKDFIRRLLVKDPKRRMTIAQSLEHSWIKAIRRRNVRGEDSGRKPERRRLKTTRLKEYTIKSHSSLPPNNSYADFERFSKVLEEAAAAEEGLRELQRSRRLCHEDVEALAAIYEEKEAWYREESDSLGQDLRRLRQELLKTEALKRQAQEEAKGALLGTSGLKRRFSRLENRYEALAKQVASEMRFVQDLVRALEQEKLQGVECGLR

Aurora kinase A = target: T2, Aurora kinase A (Homo sapiens, UniProt O14965);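 note: value from the Navigating the Kinome kinase panel profiling, panel entry STK6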
T2 sequence (O14965 whole entry): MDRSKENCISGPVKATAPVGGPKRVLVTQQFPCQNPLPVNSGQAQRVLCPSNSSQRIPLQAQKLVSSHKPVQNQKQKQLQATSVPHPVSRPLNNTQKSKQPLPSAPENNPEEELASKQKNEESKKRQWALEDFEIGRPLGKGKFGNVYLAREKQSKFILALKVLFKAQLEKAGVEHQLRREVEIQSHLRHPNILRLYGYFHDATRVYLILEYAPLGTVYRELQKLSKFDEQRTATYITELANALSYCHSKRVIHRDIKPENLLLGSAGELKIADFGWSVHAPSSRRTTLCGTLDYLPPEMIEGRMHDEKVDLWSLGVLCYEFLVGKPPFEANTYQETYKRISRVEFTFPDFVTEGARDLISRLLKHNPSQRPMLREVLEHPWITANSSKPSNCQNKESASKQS

Aurora kinase B = Aurora kinase B (Homo sapiens, UniProt Q96GD4)
[14] = target: Receptor tyrosine-protein kinase erbB-4 (Homo sapiens, UniProt Q15303);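 note: ERBB4 member of a kinome-wide kinase profiling panel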
[15] = target: Serine/threonine-protein kinase PAK 1 (Homo sapiens, UniProt Q13153)
[16] = target: Ribosomal protein S6 kinase beta-1 (Homo sapiens, UniProt P23443);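 note: measured as one member of a kinome-wide profiling panel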
[17] = target: Insulin-like growth factor 1 receptor (Homo sapiens, UniProt P08069); assay: Navigating the Kinome. Panel member name: IGF1R
[18] = target: BDNF/NT-3 growth factors receptor (Homo sapiens, UniProt Q16620);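 note: NTRK2 measured as one member of a broad kinome-wide kinase profiling panel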
[19] = target: MAP kinase-activated protein kinase 3 (Homo sapiens, UniProt Q16644);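 note: value comes from a kinome-wide profiling panel in which MAPKAPK3 is one of the panel members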
[20] = target: Fibroblast growth factor receptor 3 (Homo sapiens, UniProt P22607)
Chain of Fibroblast growth factor receptor 3 (P22607 whole entry): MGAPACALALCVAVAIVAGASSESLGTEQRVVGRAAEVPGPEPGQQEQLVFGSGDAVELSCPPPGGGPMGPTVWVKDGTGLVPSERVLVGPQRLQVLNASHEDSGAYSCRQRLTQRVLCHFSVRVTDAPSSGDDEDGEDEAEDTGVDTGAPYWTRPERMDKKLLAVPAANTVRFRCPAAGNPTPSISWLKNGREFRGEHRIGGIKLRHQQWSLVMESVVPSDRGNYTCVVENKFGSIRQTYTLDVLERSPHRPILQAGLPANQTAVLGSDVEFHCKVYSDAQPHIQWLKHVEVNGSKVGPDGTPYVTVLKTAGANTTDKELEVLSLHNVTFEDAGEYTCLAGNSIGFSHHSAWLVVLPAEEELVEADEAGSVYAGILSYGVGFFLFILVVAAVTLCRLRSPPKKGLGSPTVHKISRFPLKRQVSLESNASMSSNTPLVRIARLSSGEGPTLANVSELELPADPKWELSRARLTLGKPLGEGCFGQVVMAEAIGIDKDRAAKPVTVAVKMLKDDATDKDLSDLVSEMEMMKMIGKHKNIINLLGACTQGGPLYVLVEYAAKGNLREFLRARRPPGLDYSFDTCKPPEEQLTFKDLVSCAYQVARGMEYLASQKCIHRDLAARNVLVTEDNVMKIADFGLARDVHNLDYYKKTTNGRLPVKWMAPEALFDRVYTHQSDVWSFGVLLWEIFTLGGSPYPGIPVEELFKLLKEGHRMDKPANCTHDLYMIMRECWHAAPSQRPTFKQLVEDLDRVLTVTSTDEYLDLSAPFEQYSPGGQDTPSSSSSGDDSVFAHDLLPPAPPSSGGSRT

[21] = target: Serine/threonine-protein kinase 3 (Homo sapiens, UniProt Q13188);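 note: measured as one member of a kinome-wide kinase panel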
[22] = target: Tyrosine-protein kinase Fyn (Homo sapiens, UniProt P06241)
Chain of Tyrosine-protein kinase Fyn (P06241 whole entry): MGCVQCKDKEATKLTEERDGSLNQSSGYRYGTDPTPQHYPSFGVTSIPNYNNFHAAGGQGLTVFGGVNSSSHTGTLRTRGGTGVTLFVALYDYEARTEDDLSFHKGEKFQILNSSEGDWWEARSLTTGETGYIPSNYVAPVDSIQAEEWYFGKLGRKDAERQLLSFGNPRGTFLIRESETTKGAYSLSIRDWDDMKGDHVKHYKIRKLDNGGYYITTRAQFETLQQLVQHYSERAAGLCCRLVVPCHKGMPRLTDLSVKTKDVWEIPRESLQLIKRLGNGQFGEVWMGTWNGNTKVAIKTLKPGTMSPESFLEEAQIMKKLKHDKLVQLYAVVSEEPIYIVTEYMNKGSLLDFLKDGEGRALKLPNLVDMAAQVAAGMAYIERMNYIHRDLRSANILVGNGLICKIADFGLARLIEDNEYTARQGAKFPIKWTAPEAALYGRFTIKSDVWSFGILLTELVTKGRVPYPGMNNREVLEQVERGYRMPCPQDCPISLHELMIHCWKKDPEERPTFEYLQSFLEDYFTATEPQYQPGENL

[23] = target: Serine/threonine-protein kinase PAK 4 (Homo sapiens, UniProt O96013);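 note: value obtained within a kinome profiling panel in which PAK4 was one of the panel members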
Chain of Serine/threonine-protein kinase PAK 4 (O96013 whole entry): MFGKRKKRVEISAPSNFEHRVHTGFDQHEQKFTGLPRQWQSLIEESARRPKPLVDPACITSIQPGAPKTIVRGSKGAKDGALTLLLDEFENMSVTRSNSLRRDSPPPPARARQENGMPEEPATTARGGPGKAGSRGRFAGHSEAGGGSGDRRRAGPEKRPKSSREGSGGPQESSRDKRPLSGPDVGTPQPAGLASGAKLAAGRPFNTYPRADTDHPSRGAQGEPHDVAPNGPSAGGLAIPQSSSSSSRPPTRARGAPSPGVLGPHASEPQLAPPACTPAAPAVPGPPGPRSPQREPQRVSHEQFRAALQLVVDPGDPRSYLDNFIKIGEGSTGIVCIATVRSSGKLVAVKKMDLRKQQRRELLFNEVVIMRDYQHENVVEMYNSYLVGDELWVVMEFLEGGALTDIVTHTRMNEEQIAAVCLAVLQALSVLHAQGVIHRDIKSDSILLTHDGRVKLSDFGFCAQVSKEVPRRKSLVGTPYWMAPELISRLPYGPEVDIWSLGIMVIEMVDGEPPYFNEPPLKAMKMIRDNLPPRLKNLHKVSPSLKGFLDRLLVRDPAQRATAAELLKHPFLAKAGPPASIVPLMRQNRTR

Insulin receptor = Insulin receptor (Homo sapiens, UniProt P06213);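 note: insulin receptor kinase tested as one member of a kinome-wide kinase panel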
[24] = target: Serine/threonine-protein kinase Chk1 (Homo sapiens, UniProt O14757);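 note: measured as one member of a kinome-wide kinase profiling panel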
[25] = target: Vascular endothelial growth factor receptor 2 (Homo sapiens, UniProt P35968)
Chain of Vascular endothelial growth factor receptor 2 (P35968 whole entry): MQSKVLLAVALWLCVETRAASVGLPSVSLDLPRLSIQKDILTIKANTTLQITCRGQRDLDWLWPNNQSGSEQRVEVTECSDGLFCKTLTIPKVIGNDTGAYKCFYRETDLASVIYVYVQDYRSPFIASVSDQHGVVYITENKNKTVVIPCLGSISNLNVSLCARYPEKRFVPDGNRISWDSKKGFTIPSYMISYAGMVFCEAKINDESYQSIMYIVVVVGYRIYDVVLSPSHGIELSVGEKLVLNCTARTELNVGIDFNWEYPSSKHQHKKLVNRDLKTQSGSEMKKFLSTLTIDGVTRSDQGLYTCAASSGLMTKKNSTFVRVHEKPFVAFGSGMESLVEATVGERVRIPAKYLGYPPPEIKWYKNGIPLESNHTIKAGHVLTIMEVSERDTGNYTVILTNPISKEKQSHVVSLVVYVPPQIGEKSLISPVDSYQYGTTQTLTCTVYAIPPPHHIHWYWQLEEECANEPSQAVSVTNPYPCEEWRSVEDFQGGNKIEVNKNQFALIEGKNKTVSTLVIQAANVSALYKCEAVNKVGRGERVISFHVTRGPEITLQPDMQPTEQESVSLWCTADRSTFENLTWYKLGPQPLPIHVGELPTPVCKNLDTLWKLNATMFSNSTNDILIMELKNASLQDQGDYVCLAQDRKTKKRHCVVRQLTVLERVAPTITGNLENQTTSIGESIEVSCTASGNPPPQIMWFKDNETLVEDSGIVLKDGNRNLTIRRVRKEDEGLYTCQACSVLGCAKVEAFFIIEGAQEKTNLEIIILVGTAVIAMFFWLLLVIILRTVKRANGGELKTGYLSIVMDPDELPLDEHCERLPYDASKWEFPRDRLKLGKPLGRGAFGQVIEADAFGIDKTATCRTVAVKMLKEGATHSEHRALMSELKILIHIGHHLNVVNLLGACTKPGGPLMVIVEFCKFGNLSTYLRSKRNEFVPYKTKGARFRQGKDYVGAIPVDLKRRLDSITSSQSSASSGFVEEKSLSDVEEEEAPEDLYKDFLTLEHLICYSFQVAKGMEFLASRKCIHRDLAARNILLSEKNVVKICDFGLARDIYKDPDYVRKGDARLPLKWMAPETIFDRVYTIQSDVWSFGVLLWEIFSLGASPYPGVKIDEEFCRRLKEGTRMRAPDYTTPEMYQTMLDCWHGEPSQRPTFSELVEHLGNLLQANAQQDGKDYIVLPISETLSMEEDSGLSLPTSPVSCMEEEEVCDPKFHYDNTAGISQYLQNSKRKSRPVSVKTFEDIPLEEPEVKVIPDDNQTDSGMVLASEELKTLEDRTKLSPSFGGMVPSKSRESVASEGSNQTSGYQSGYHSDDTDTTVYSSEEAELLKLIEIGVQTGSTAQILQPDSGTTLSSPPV

[26] = target: Rho-associated protein kinase 1 (Homo sapiens, UniProt Q13464);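 note: measured within a broad kinome-wide panel profiling many kinases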
Chain of Rho-associated protein kinase 1 (Q13464 whole entry): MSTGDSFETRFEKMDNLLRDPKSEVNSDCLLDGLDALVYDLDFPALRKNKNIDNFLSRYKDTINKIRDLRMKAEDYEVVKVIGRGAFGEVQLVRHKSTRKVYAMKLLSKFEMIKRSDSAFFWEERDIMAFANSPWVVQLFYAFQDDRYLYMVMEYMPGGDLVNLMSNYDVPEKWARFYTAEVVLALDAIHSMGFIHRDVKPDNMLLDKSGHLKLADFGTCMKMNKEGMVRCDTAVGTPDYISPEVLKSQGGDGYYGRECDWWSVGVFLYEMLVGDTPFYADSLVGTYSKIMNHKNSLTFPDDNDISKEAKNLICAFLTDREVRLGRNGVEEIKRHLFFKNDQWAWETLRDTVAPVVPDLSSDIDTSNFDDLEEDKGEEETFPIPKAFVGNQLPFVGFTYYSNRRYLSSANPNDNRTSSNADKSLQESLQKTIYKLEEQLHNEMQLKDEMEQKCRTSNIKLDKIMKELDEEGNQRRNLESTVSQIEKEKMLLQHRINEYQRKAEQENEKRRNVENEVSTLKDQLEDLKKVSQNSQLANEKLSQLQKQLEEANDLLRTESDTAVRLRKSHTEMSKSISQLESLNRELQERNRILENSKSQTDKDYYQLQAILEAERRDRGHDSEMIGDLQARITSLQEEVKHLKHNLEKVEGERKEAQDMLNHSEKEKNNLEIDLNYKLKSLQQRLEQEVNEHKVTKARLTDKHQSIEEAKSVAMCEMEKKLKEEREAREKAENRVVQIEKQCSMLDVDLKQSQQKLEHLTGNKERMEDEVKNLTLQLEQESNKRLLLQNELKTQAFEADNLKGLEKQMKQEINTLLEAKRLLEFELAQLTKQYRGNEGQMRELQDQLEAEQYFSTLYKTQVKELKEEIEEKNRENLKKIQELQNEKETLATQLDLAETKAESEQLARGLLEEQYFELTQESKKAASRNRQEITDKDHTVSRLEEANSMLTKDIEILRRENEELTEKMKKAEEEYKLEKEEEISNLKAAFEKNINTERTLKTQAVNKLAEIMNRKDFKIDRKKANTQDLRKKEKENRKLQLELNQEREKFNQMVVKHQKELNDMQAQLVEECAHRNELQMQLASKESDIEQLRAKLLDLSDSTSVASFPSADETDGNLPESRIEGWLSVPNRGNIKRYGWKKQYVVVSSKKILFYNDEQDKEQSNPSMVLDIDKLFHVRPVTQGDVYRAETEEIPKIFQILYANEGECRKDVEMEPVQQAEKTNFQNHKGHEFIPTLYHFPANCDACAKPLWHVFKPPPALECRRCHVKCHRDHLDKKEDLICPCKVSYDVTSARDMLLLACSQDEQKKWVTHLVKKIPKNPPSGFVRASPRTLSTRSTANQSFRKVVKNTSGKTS

[27] = target: Receptor-type tyrosine-protein kinase FLT3 (Homo sapiens, UniProt P36888);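 note: FLT3 was tested as one member of a kinome-wide kinase panel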
[28] = target: Fibroblast growth factor receptor 1 (Homo sapiens, UniProt P11362)

Row | Compound | Ki [1] | Ki [2] | Ki [3] | Ki [4] | Ki [5] | Ki [6] | Ki [7] | Ki [8] | Ki [9] | Ki [10] | Ki [11] | Ki [12] | Ki [13] | Ki (Aurora kinase A) | Ki (Aurora kinase B) | Ki [14] | Ki [15] | Ki [16] | Ki [17] | Ki [18] | further results
1 | Cc1c(C=O)c(O)n2c(nc3ccccc32)c1C#N | > 7940 nM (inactive) | 398 nM (active) | > 7940 nM (inactive) | > 1260 nM (inactive) | > 7940 nM (inactive) | > 1580 nM (inactive) | > 3980 nM (inactive) | > 1580 nM (inactive) | > 631 nM (inactive) | > 6310 nM (inactive) | > 3160 nM (inactive) | > 10000 nM (inactive) | 1000 nM (active) | 794 nM (active) | 6310 nM (active) | > 3980 nM (inactive) | > 10000 nM (inactive) | 1260 nM (active) | > 1000 nM (inactive) | > 5010 nM (inactive) | Ki [19]: > 10000 nM (inactive); Ki [20]: > 2000 nM (inactive); Ki [21]: 5010 nM (active); Ki [22]: 398 nM (active); Ki [23]: > 5010 nM (inactive); Ki (Insulin receptor): > 5010 nM (inactive); Ki [24]: > 7940 nM (inactive); Ki [25]: > 7940 nM (inactive); Ki [26]: > 10000 nM (inactive); Ki [27]: 631 nM (active); Ki [28]: > 5010 nM (inactive)
2 | Cc1n[nH]c2cnc(-c3cncc(OCC(N)Cc4cccc(C(F)(F)F)c4)c3)cc12 (configuration not stated) | 31.6 nM (active) | > 1580 nM (inactive) | 10 nM (active) | > 1260 nM (inactive) | 631 nM (active) | 1.26 nM (active) | > 3980 nM (inactive) | > 1580 nM (inactive) | > 631 nM (inactive) | 1000 nM (active) | > 3160 nM (inactive) | 79.4 nM (active) | 3.98 nM (active) | > 1580 nM (inactive) | 3160 nM (active) | > 3980 nM (inactive) | 2000 nM (active) | 12.6 nM (active) | > 2000 nM (inactive) | > 5010 nM (inactive) | Ki [19]: > 10000 nM (inactive); Ki [20]: > 2000 nM (inactive); Ki [21]: 79.4 nM (active); Ki [22]: > 794 nM (inactive); Ki [23]: 398 nM (active); Ki (Insulin receptor): > 5010 nM (inactive); Ki [24]: 3980 nM (active); Ki [25]: > 7940 nM (inactive); Ki [26]: 7.94 nM (active); Ki [27]: 1580 nM (active); Ki [28]: > 5010 nM (inactive)

Reference: ChEMBL document CHEMBL1201862, “PubChem BioAssay data set” (2004)
